The values below come from patent US20080262014A1, “Use of Camptothecin Derivatives for the Treatment of Proliferative Diseases in a Fixed Dosing Regimen” (priority 2004, published 2008).

Entries after “also recorded” stand apart in the source; their conditions may differ.

Data set [1] in a line: clinical. Details: species or system patients. The conditions noted are these: human, in vivo. The text has this: The optimal dose and schedule of gimatecan stems mainly from the putative therapeutic window identified from the PK/PD analysis of completed phase I data. The target range of cumulative gimatecan cycle exposure (AUC 5,000-10,000 (ng)(hr)/mL) was selected because it produces partial responses and yet is below the exposure where grade III/IV neutropenia and thrombocytopenia adverse events became evident (FIG. 1). […] This may explain why toxicity could not be differentiated among the three schedules; all three schedules exceeded the putative effective daily exposure and were in a potentially toxic range. […] The flat dose is dosed every third day, or once every three days, or every 72 hours, or at one half-life to avoid potential accumulation. The starting doses are chosen to target a systemic exposure of 200-400 (ng)(hr)/mL (the “therapeutic window”) once every three days.

A short description of data set [2]: Clinical pharmacokinetics (disposition) of oral gimatecan in phase I patients with refractory malignancies. In kind it is in vivo. Here is the method:
The disposition of oral gimatecan is evaluated in patients with refractory malignancies administered on a daily schedule for 5, 10, or 15 consecutive days or a weekly schedule for 3 weeks of a 28 day cycle. The disposition of gimatecan using these four schedules are depicted in FIGS. 3 (a-d). Clinical pharmacokinetics is assessed on the first and last days of the first cycle of daily dosing. […] However, patients were dosed based on their body surface area. Patients who responded to gimatecan had taken 0.45 mg, 0.9 mg, 1.1 mg or 1.6 mg which made it difficult to pick an effective dose.

What is called AUC is concentration integrated over time. As usually defined, the half-life is the time in which the quantity being followed falls by half. In the case of `CC[C@@]1(O)C(=O)OCc2c1cc1n(c2=O)Cc2c-1nc1ccccc1c2/C=N/OC(C)(C)C` [gimatecan, 7-(t-butoxy)imino methyl camptothecin], in data set [1], the AUC at 1 day is 200 to 400 ng·h/mL. In data set [1] (iv), this molecule displayed an AUC at 1 cycle of 5000 to 10000 ng·h/mL. In data set [2] (78 patients receiving four schedules), the “body surface area as predictor of gimatecan clearance” value is reported as “lack of correlation; also recorded: not a good predictor; also recorded: not predicted by body surface area”. In data set [2] (human, in vivo, oral, estimated from 10 patients receiving the weekly schedule, read-out: terminal harmonic mean half-life (converted)), the half-life is 86 h. For the same molecule, in data set [2] (oral, four schedules), the “apparent oral clearance, dependence on dose” value is recorded as “independent of dose”. The drug accumulation entry in data set [2] (weekly and daily schedule) was “Drug accumulation is observed”.
